Assay results published in patent EP4653451A1, “POLYPEPTIDE COMPOUND AND USE THEREOF” (Chengdu New Radiomedicine Technology Co., Ltd., priority 2023, dated 2024).
Counter-ions that a name gives are not always drawn. Like-named read-outs stand apart in the source and are kept apart here. Numbered stars: 1 amine (or outer) side, 2 acyl side, 3 side chain; on linkers, the order of the positions; unused ones are H or OH. Bridge positions count the residues as written; N and C are the ends. Square brackets hold non-standard residues; d marks the D form. Peptide text beside a SMILES is read from it. * marks the point of attachment. X1 = O=C(O)CN1CCN(CC(=O)O)CCN(CC(=O)NCCSCc2cc(CSC[C@@H](CNC(=O)C3CCCC3)N[*:2])cc(C[*:1])c2)CCN(CC(=O)O)CC1; TBMB(SCH2CH2NH-DOTA) = O=C(O)CN1CCN(CC(=O)O)CCN(CC(=O)NCCSCc2cc(C[*:1])cc(C[*:2])c2)CCN(CC(=O)O)CC1; 1Nal = N[C@@H](Cc1cccc2ccccc12)C(=O)O; mXylylene = c1cc(C[*:1])cc(C[*:2])c1; NH(4-picolyl) = c1cc(CN*)ccn1; β3hC = N[C@@H](CS)CC(=O)O; Nle = CCCC[C@H](N)C(=O)O; Hexanoyl = CCCCCC(=O)*; NHcPent = C1CCC(N*)C1; NHBn = c1ccc(CN*)cc1; NHPh = c1ccc(N*)cc1; NHPentyl = CCCCCN*; X3 = C1C2CC1(N*)C2; X2 = C1CCC(CN*)C1

Assays:
[1] = Pharmacokinetics after tail vein injection; type: in vivo, CD-1 mice; conditions: iv, 0.2 mg/kg
Method: Male CD-1 mice weighing 30-35 g were selected, and a test compound was injected into the tail vein at 0.2 mg/kg. Plasma samples were collected at 5, 15, 30, and 60 min and 2, 4, 8, and 24 h after administration and processed accordingly. The drug content was analyzed by LC-MS/MS.
Among them, compounds 20, 21 and 22 were compounds formed by chelating nonradioactive in with compounds 11, 14 and 16, respectively.

[2] = target: T1, human recombinant FAP protein (Homo sapiens, UniProt Q12884); test: Inhibitory activity against FAP protease activity (Z-Gly-Pro-AMC fluorescence); type: biochemical
T1 construct: purchased Acrobiosystems FAP-H82Q6
T1 sequence (Q12884 1-760): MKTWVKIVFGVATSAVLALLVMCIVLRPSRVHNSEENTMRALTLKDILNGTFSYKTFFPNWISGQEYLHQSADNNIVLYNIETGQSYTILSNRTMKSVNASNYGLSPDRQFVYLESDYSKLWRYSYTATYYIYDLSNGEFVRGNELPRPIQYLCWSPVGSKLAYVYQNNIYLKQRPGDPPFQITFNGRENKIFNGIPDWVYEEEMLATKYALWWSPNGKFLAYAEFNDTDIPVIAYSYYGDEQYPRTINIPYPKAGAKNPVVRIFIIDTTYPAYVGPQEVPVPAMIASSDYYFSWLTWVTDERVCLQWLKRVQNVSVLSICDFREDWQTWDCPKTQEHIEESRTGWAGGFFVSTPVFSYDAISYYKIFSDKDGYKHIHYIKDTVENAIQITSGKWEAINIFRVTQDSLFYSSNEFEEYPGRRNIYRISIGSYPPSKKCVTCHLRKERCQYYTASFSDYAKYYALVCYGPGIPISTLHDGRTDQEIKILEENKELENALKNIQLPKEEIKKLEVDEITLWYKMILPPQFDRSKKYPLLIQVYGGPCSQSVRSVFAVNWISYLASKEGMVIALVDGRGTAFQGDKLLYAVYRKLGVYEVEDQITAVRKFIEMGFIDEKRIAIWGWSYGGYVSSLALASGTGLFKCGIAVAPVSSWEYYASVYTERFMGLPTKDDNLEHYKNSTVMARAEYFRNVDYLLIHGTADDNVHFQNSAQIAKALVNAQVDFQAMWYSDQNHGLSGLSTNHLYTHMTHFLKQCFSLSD
Method: The human recombinant FAP protein (Acrobiosystems, FAP-H82Q6) was diluted to a 125 pM FAP working solution with an assay buffer (50 mM Tris-HCl, 1 M NaCl, 1 mg/mL BSA, pH 7.5), and the FAP substrate (Z-Gly-Pro-AMC (LEONBIO, 68542-93-8)) was diluted to a 150 µM substrate working solution with the assay buffer. 40 µl of FAP working solution and 20 µl of compounds at different concentrations (4-fold dilution) were taken, then 40 µl of substrate working solution was added, and the mixture was uniformly mixed on a shaker at room temperature for 1 min. The uniformly mixed mixture was reacted at room temperature in the dark for 90 min. The fluorescence value Ex = 380 nm/Em = 460 nm was read by using a microplate reader. The original data was saved, and the IC50 value of the compound was obtained by using the original data or the Inhibition% via calculation and analyzing the data with Graphpad PRISM.

[3] = target: T2, human recombinant DPP4 protein (Homo sapiens, UniProt P27487); test: Inhibitory activity against DPP4 protease activity (H-Gly-Pro-AMC fluorescence); type: biochemical; conditions: 125 pM DPP4 working solution, 90 min at room temperature
T2 construct: purchased Acrobiosystems DP4-H5211
Method: The human recombinant DPP4 protein (Acrobiosystems, DP4-H5211) was formulated into a 125 pM working solution with an assay buffer (20 mM Tris-HCl, 100 mM NaCl), and the DPP4 substrate (H-Gly-Pro-AMC.HBr (LEONBIO, 115035-46-6)) was diluted to a 250 µM DPP4 substrate working solution with the assay buffer. 40 µl of DPP4 working solution and 20 µl of compounds at different concentrations (4-fold dilution) were taken, then 40 µl of DPP4 substrate working solution was added, and the mixture was uniformly mixed on a shaker at room temperature for 1 min. The uniformly mixed mixture was reacted at room temperature in the dark for 90 min. Reading was made by microplate reader at excitation and emission wavelengths of 380 nm and 460 nm. The original data was saved, and the IC50 value of the compound was obtained by analyzing the data with Graphpad PRISM.

[4] = 125 pM FAP working solution, 90 min at room temperature, read-out: FAP IC50

T2 sequence (P27487 whole entry): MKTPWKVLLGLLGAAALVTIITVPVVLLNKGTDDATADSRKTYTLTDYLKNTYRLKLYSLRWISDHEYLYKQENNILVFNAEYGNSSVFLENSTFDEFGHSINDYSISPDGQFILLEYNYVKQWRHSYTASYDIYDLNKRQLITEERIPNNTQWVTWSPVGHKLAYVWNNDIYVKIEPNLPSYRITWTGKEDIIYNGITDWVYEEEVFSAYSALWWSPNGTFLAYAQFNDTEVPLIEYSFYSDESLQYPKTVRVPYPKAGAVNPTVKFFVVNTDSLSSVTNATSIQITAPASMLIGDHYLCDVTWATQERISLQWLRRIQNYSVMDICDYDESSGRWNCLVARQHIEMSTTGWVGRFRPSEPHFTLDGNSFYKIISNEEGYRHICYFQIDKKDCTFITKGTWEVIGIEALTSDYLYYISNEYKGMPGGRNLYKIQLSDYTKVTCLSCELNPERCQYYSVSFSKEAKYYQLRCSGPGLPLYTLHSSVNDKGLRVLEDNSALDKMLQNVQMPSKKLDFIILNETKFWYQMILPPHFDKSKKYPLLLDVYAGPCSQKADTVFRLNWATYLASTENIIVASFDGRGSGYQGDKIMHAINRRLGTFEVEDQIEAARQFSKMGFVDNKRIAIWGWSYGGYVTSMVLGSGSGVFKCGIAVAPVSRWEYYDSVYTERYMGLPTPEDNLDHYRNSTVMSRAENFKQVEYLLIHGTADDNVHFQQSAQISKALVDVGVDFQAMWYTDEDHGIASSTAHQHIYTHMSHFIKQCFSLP

Row | SMILES | IC50 [2, 4] [nM] | IC50 [3] [nM] | further results
1 | CCCCCC(=O)N[C@H]1CSCc2cc(CSCCNC(=O)CN3CCN(CC(=O)O)CCN(CC(=O)O)CCN(CC(=O)O)CC3)cc(c2)CSC[C@@H](C(=O)O)NC(=O)[C@H](Cc2ccccc2)NC(=O)[C@H](CCC(N)=O)NC(=O)[C@H]([C@@H](C)O)NC(=O)[C@@H]2CCCN2C(=O)[C@@H]2CCCN2C1=O [Compound 3BP-3623, reference compound] |  |  | AUC(0-t) ([1]; mouse, plasma, male CD-1 mice, tail vein, read-out: AUC0-t): 195 ng·h/mL; clearance ([1]; mouse, plasma, male CD-1 mice, tail vein, read-out: Cl (converted)): 17 mL/min/kg; Cmax ([1]; mouse, plasma, male CD-1 mice, tail vein, read-out: Cmax): 594 ng/mL; half-life ([1]; mouse, plasma, male CD-1 mice, tail vein, read-out: T1/2 (converted)): 0.37 h; Vd ([1]; mouse, plasma, male CD-1 mice, tail vein, read-out: Vss): 0.24 L/kg
2 | CCCCCC(=O)N[C@H]1CSCc2nc(CSCCNC(=O)CN3CCN(CC(=O)O)CCN(CC(=O)O)CCN(CC(=O)O)CC3)nc(n2)CSC[C@@H](C(=O)O)NC(=O)[C@H](Cc2ccccc2)NC(=O)[C@H](CCC(N)=O)NC(=O)[C@H]([C@@H](C)O)NC(=O)[C@@H]2CCCN2C(=O)[C@@H]2CCCN2C1=O [Compound 7, Hex-Cys-Pro-Pro-Thr-Gln-Phe-Cys-OH (Cys bridge 2,4,6-tribromomethyl-1,3,5-triazine (DOTA-AET)) trifluoroacetate] | 1.53 | > 10000 | 
3 | CCCCCC(=O)N[C@H]1CSCc2cc(CSCCNC(=O)CN3CCN(CC(=O)O)CCN(CC(=O)O)CCN(CC(=O)O)CC3)cc(c2)CSC[C@@H](CC(=O)O)NC(=O)[C@H](Cc2ccccc2)NC(=O)[C@H](CCC(N)=O)NC(=O)[C@H]([C@@H](C)O)NC(=O)[C@@H]2CCCN2C(=O)[C@@H]2CCCN2C1=O [Compound 8, Hex-Cys-Pro-Pro-Thr-Gln-Phe-beta-HomoCys (Cys bridge TBMB (DOTA-AET)) trifluoroacetate] |  | > 10000 | IC50 [2]: 1.18 nM
4 | CCCCCC(=O)N[C@H]1CSCc2cc(CSCCNC(=O)CN3CCN(CC(=O)O)CCN(CC(=O)O)CCN(CC(=O)O)CC3)cc(c2)CSC[C@@H](CNC(=O)CCc2ccc(C(F)(F)F)cc2)NC(=O)[C@H](Cc2cccc3ccccc23)NC(=O)[C@H](CCC(N)=O)NC(=O)[C@H]([C@@H](C)O)NC(=O)[C@@H]2CCCN2C(=O)[C@@H]2CCCN2C1=O [Compound 19, Hex-Cys-Pro-Pro-Thr-Gln-1Nal-Cys-CH2NH-3-(4-trifluoromethylphenyl)propanoic acid (Cys bridge TBMB (DOTA-AET))] | 0.98 | > 10000 | 
5 | CCCCCC(=O)N[C@H]1CSCc2cc(CSCCNC(=O)CN3CCN(CC(=O)O)CCN(CC(=O)O)CCN(CC(=O)O)CC3)cc(c2)CSC[C@@H](CC(=O)O)NC(=O)[C@H](Cc2cccc3ccccc23)NC(=O)[C@H](CCC(N)=O)NC(=O)[C@H]([C@@H](C)O)NC(=O)[C@@H]2CCCN2C(=O)[C@@H]2CCCN2C1=O [Compound 20] (Hexanoyl-CPPTQ[1Nal][β3hC]-OH; linker 1-7 via TBMB(SCH2CH2NH-DOTA)) |  |  | AUC(0-t) ([1]; male, CD-1, mouse, in vivo): 308 ng·h/mL; Cmax ([1]; male, CD-1, mouse, in vivo): 772 ng/mL; Vd ([1]; male, CD-1, mouse, in vivo): 0.52 L/kg; clearance ([1]; male, CD-1, mouse, in vivo): 10.2 mL/min/kg; half-life ([1]; male, CD-1, mouse, in vivo): 1.63 h
6 | CCCCCC(=O)N[C@H]1CSCc2cc(CSCCNC(=O)CN3CCN(CC(=O)O)CCN(CC(=O)O)CCN(CC(=O)O)CC3)cc(c2)CSC[C@@H](CNC(=O)C2CCCC2)NC(=O)[C@H](Cc2ccccc2)NC(=O)[C@H](CCC(N)=O)NC(=O)[C@H]([C@@H](C)O)NC(=O)[C@@H]2CCCN2C(=O)[C@@H]2CCCN2C1=O [Compound 21] (Hexanoyl-CPPTQF; linker 1-C via X1) |  |  | AUC(0-t) ([1]; male, CD-1, mouse, in vivo): 634 ng·h/mL; Cmax ([1]; male, CD-1, mouse, in vivo): 1010 ng/mL; Vd ([1]; male, CD-1, mouse, in vivo): 0.22 L/kg; clearance ([1]; male, CD-1, mouse, in vivo): 5.17 mL/min/kg; half-life ([1]; male, CD-1, mouse, in vivo): 1.26 h
7 | CCCC[C@H](N)C(=O)N[C@H]1CSCc2cccc(c2)CSC[C@@H](CC(=O)O)NC(=O)[C@H](Cc2cccc3ccccc23)NC(=O)[C@H](CCC(N)=O)NC(=O)[C@H]([C@@H](C)O)NC(=O)[C@@H]2CCCN2C(=O)[C@@H]2CCCN2C1=O [Compound 39] (H-[Nle]CPPTQ[1Nal][β3hC]-OH; linker 2-8 via mXylylene) | 5.31 | > 10000 | 

More lines, main results first:

Row | IC50 [2, 4] [nM] | IC50 [3] [nM] | SMILES | further results
8 | 1.61 | > 10000 | CCCCCC(=O)N[C@H]1CSCc2cccc(c2)CSC[C@@H](CC(N)=O)NC(=O)[C@H](Cc2cccc3ccccc23)NC(=O)[C@H](CCC(N)=O)NC(=O)[C@H]([C@@H](C)O)NC(=O)[C@@H]2CCCN2C(=O)[C@@H]2CCCN2C1=O [Compound 31] (Hexanoyl-CPPTQ[1Nal][β3hC]-NH2; linker 1-7 via mXylylene) | 
9 | 3.35 | > 10000 | CCCCCNC(=O)C[C@@H]1CSCc2cccc(c2)CSC[C@H](NC(=O)CCCCC)C(=O)N2CCC[C@H]2C(=O)N2CCC[C@H]2C(=O)N[C@@H]([C@@H](C)O)C(=O)N[C@@H](CCC(N)=O)C(=O)N[C@@H](Cc2cccc3ccccc23)C(=O)N1 [Compound 32] (Hexanoyl-CPPTQ[1Nal][β3hC]-NHPentyl; linker 1-7 via mXylylene) | 
10 | 2.9 | > 10000 | CCCCCC(=O)N[C@H]1CSCc2cccc(c2)CSC[C@@H](CC(=O)NCc2ccccc2)NC(=O)[C@H](Cc2cccc3ccccc23)NC(=O)[C@H](CCC(N)=O)NC(=O)[C@H]([C@@H](C)O)NC(=O)[C@@H]2CCCN2C(=O)[C@@H]2CCCN2C1=O [Compound 33] (Hexanoyl-CPPTQ[1Nal][β3hC]-NHBn; linker 1-7 via mXylylene) | 
11 | 5.92 | > 10000 | CCCCCC(=O)N[C@H]1CSCc2cccc(c2)CSC[C@@H](CC(=O)NC2CCCC2)NC(=O)[C@H](Cc2cccc3ccccc23)NC(=O)[C@H](CCC(N)=O)NC(=O)[C@H]([C@@H](C)O)NC(=O)[C@@H]2CCCN2C(=O)[C@@H]2CCCN2C1=O [Compound 34] (Hexanoyl-CPPTQ[1Nal][β3hC]-NHcPent; linker 1-7 via mXylylene) | 
12 | 6.62 | > 10000 | CCCCCC(=O)N[C@H]1CSCc2cccc(c2)CSC[C@@H](CC(=O)NCC2CCCC2)NC(=O)[C@H](Cc2cccc3ccccc23)NC(=O)[C@H](CCC(N)=O)NC(=O)[C@H]([C@@H](C)O)NC(=O)[C@@H]2CCCN2C(=O)[C@@H]2CCCN2C1=O [Compound 35] (Hexanoyl-CPPTQ[1Nal][β3hC]-X2; linker 1-7 via mXylylene) | 
13 | 4.18 | > 10000 | CCCCCC(=O)N[C@H]1CSCc2cccc(c2)CSC[C@@H](CC(=O)Nc2ccccc2)NC(=O)[C@H](Cc2cccc3ccccc23)NC(=O)[C@H](CCC(N)=O)NC(=O)[C@H]([C@@H](C)O)NC(=O)[C@@H]2CCCN2C(=O)[C@@H]2CCCN2C1=O [Compound 36] (Hexanoyl-CPPTQ[1Nal][β3hC]-NHPh; linker 1-7 via mXylylene) | 
14 | 4.67 | > 10000 | CCCCCC(=O)N[C@H]1CSCc2cccc(c2)CSC[C@@H](CC(=O)NCc2ccncc2)NC(=O)[C@H](Cc2cccc3ccccc23)NC(=O)[C@H](CCC(N)=O)NC(=O)[C@H]([C@@H](C)O)NC(=O)[C@@H]2CCCN2C(=O)[C@@H]2CCCN2C1=O [Compound 37] (Hexanoyl-CPPTQ[1Nal][β3hC]-{NH(4-picolyl)}; linker 1-7 via mXylylene) | 
15 | 4.12 | > 10000 | CCCCCC(=O)N[C@H]1CSCc2cccc(c2)CSC[C@@H](CC(=O)NC23CC(C2)C3)NC(=O)[C@H](Cc2cccc3ccccc23)NC(=O)[C@H](CCC(N)=O)NC(=O)[C@H]([C@@H](C)O)NC(=O)[C@@H]2CCCN2C(=O)[C@@H]2CCCN2C1=O [Compound 38] (Hexanoyl-CPPTQ[1Nal][β3hC]-X3; linker 1-7 via mXylylene) | 
